Data as given in paper PMC12474180 (Toxins, 2025).
Like-named read-outs stand apart in the source and are kept apart here.

What was measured:
[1] = system: m6-ΔmlrD
[2] = system: MlrB
[3] = system: MlrC
[4] = system: m6-ΔmlrB
[5] = system: m6-ΔmlrC
[6] = system: MlrA
[7] = system: m6-ΔmlrA
[8] = system: MlrC; test: purified recombinant MBP-tagged MlrC (0.05 mg/L purified enzymes); conditions: Sphingopyxis sp. m6, 30 °C, up to 6 h
[9] = Sphingopyxis sp. m6 (wild-type) cells in MSM; conditions: Sphingopyxis sp. m6, 30 °C, up to 6 h
[10] = system: MlrB; test: purified recombinant MBP-tagged MlrB (0.05 mg/L purified enzymes); conditions: Sphingopyxis sp. m6, 30 °C, up to 6 h
[11] = system: MlrC; conditions: Sphingomonas ACM-3962 and Sphingopyxis sp. C-1; cited from earlier work
[12] = system: MlrA; test: purified recombinant MBP-tagged MlrA (0.05 mg/L purified enzymes); conditions: Sphingopyxis sp. m6, 30 °C, up to 30 min
[13] = system: MlrB; conditions: cited from earlier work
[14] = system: MlrC; test: recombinant MlrC; conditions: cited from earlier work
[15] = knockout mutant m6-ΔmlrD cells in MSM; conditions: Sphingopyxis sp. m6, 30 °C, up to 6 h
[16] = system: MlrA, MlrB, MlrC; test: Mlr enzymes of Sphingomonas sp. ACM-3962; conditions: cited from earlier work
[17] = knockout mutant m6-ΔmlrC cells in MSM; conditions: Sphingopyxis sp. m6, 30 °C, up to 6 h
[18] = system: MlrA; conditions: cited from earlier work
[19] = knockout mutant m6-ΔmlrB cells in MSM; conditions: Sphingopyxis sp. m6, 30 °C, up to 6 h

Molecule: COC(Cc1ccccc1)C(C)C=C(C)C=CC(N)C(C)C(=O)O (stereo not shown) [Adda, 3-amino-9-methoxy-2,6,8-trimethyl-10-phenyl-deca-4,6-dienoic acid]
- degrading ability of the strain [1]: can all degrade
- Degrading ability of MlrB [2]: -
- Degrading ability of MlrC [3]: -
- degrading ability of the strain [4]: can all degrade
- degrading ability of the strain [5]: can all degrade
- Degrading ability of MlrA [6]: -
- degrading ability of the strain [7]: can all degrade

Molecule: Adda-Glu-Mdha-Ala
- cleaved bond [8]: Adda-Glu
- cleaved bond [9]: Adda-Glu
- not cleaved [10]: can’t degrade
- fragment found [11]: Adda
- not cleaved [12]: can’t degrade

Molecule: Adda-Glu-Mdha-Ala-Leu-MeAsp-Arg
- cleaved bond [8]: Adda-Glu
- cleaved bond [9]: Ala-Leu
- fragment found [13]: tetrapeptide (Adda-Glu-Mdha-Ala)
- fragment found [14]: hexapeptide compound
- cleaved bond [10]: Ala-Leu
- fragment found [11]: Adda
- not cleaved [12]: can’t degrade

Molecule: cyclo-(Ala-Leu-MeAsp-Arg-Adda-Glu-Mdha)
- fragment found [15]: linearized MC-LR, within 1 h and tetrapeptide and Adda
- fragment found [16]: linearized MC-LR and tetrapeptide and Adda
- not cleaved [8]: can’t degrade
- fragment found [17]: linearized MC-LR, within 1 h and tetrapeptide and Adda
- cleaved bond [9]: Arg-Adda, first_seen
- fragment found [18]: linearized MC-LR (Adda-Glu-Mdha-Ala-Leu-MeAsp-Arg), first_seen
- not cleaved [10]: can’t degrade
- cleaved bond [12]: Arg-Adda
- fragment found [19]: linearized MC-LR, within 1 h and tetrapeptide, minor and Adda
